{"source": "patent US20090092664A1", "about": "“POLYMER-METAL CHELATOR CONJUGATES AND USES THEREOF” (UNIVERSITY OF KENTUCKY RESEARCH FOUNDATION, priority 2007, published 2009)", "key": {"[1]": {"conditions": "cited from earlier work"}, "MCF-7 cells [2]": {"system": "MCF-7 cells", "assay": "Intracellular ROS (H2DCFDA), MCF-7 cells", "assay_type": "cell-based, human", "conditions": "for intracellular ROS generation (in words): D-pen 200 μM, cupric sulfate 10 μM, catalase 500 U/mL with D-pen plus cupric sulfate", "description": "(§1) FIGS. 4A-B: D-pen in the presence of cupric sulfate generates intracellular ROS in breast cancer and leukemia cells. […] Cells were incubated without (positive control) or with H2O2, H2O2 plus catalase, cupric sulfate, D-pen, D-pen plus cupric sulfate, D-pen plus cupric sulfate plus catalase in media. Unloaded cells were used as negative control. The cell associated fluorescence was measured at 30, 60, 90 min at excitation and emission of 485±20 nm and 530±25 nm, respectively. Data are reported as the DCF fluorescence (fold increase versus control).\n(§2) 2′-7′-dichlorodihydrofluorescein diacetate (H2DCFDA) was used as an indicator of intracellular ROS generation. H2DCFDA is a cell permeable probe, it enters the cell and is deacetylated to a non-fluorescent product, 2′-7′-dichlorodihydrofluorescein (H2DCF) by cellular esterases and is oxidized by ROS to a fluorescent product, 2′-7′-dichlorofluorescein (DCF). MCF-7 and HL-60 cells were loaded with H2DCFDA and were seeded in a 96 well plate at a concentration of 3×10^4 cells/well. Briefly, cells were incubated with PBS buffer containing 5 μM H2DCFDA (dissolved in DMSO) for 30 min at 37° C. H2DCFDA was then removed and cells were washed twice with fresh PBS to remove excess H2DCFDA. Cells were then incubated with either drug in media or media alone (positive control). Non-H2DCFDA loaded cells were used as negative control. The fluorescence of control and sample wells was recorded at excitation 485±20 nm, emission 530±25 nm with Biotek FL600 (Biotek Instruments, Winooski, Vt.) at 30, 60, and 90 min. Then data is reported as DCF fluorescence (fold increase vs. control) corresponding to the increase of fluorescence associated with the sample cells compared to that of untreated cells."}, "HL-60 cells [3]": {"system": "HL-60 cells", "assay": "Cytotoxicity of PGA-D-pen conjugate (MTT), HL-60", "assay_type": "cell-based, human", "conditions": "HL-60, 48 h", "procedure": "(§4) Cell Culture and Cytotoxicity: The P388 cells and HL-60 cells were plated at 1×10^4 and 4×10^4 cells respectively in 200 μl of medium per well in round bottom 96-well microwell plates. The MDA-MB-468 cells were plated at 1×10^4 cells/well in 96-well flat bottom microwell plates and allowed to attach overnight. Equal volumes of PGA-D-pen conjugate, PGA, D-pen, PGA+D-pen or PBS were added and the plates were incubated for 48 h (37° C., 5% CO2). 20 μl of MTT reagent (5 mg/ml in PBS; Sigma) was added to each well and re-incubated for 3-4 h to allow formation of formazan crystals. The round bottom plates were centrifuged at 200 g for 5 min. Subsequently, the supernatant was aspirated and 200 μl of DMSO were added to each well and the plate was incubated at room temperature for 1 h to lyse the cells and solubilize formazan. The optical density of each well at 570 nm was measured on a Synergy™ 2 Multi-Detection Microplate Reader (Biotek, Winooski, Vt.). Percent viability in treated wells was calculated as the percentage of optical density in control wells."}, "HL-60 cells [4]": {"system": "HL-60 cells", "assay_type": "cell-based, human", "description": "FIG. 19: Cellular uptake of D-pen. D-pen (100 μM) was added to HL-60 (1×10^6) cells in PBS (pH 7.4) in a 24-well plate at 37° C. in 5% CO2 incubator. Cells were separated by centrifugation and the supernatant was analyzed by HPLC assay for D-pen concentration. Data represents mean±SD (n=4).\nQuantitative cell uptake of free D-pen. The quantitative cell uptake of free D-pen was investigated in HL-60 cells. Briefly, D-pen (100 μM) was incubated with HL-60 (1×10^6) cells in PBS, pH 7.4 at 37° C. in a 5% CO2 incubator. Cells were incubated for 1-4 h. At pre-determined time the cells were separated by centrifugation and the supernatant was analyzed for the remaining concentration of D-pen as present as either free D-pen or D-pen disulfide using the HPLC assay previously described (Gupte and Mumper, 2007)."}, "HL-60 cells [5]": {"system": "HL-60 cells", "assay": "Intracellular ROS (carboxy-H2DCFDA), HL-60 cells", "assay_type": "cell-based, human", "conditions": "naive HL-60, carboxy-H2DCFDA 25 μM, 8 h after treatment"}, "MDA-MB-468 cells": {"system": "MDA-MB-468 cells", "assay": "Cytotoxicity of PGA-D-pen conjugate (MTT), MDA-MB-468", "assay_type": "cell-based", "conditions": "MDA-MB-468, 48 h", "procedure": "as §4"}, "HL-60 cells [6]": {"system": "HL-60 cells", "assay": "Intracellular ROS (H2DCFDA), HL-60 cells", "assay_type": "cell-based, human", "conditions": "D-pen 200 μM, cupric sulfate 10 μM, catalase 500 U/mL with D-pen plus cupric sulfate", "description": "as §1, §2"}, "[7]": {"conditions": "cited from earlier work", "remark": "listed apart in the source"}, "P388 cells": {"system": "P388 cells", "assay": "Cytotoxicity of PGA-D-pen conjugate (MTT), P388", "assay_type": "cell-based", "conditions": "P388, 48 h", "procedure": "as §4"}, "BT474 cells": {"system": "BT474 cells", "assay": "MTT cell viability assay, BT474 breast cancer cells", "assay_type": "cell-based, human", "description": "FIGS. 2A-B: […] Cell viability was determined with MTT assay. […] Inhibitory concentration (IC50) was reported as mean±S.E. […] Data are represented as the mean±standard error (SE). […] San Diego, Calif.)."}, "HL-60 cells [8]": {"system": "HL-60 cells", "assay": "cells", "conditions": "Homo sapiens, HL-60, 48 h", "procedure": "Cell viability was determined with the MTT assay. Absorbance was measured at 595 nm and adjusted to the absorbance of untreated cells. Data represent mean±SE; n=12 (two independent experiments performed in n=6). Inhibitory concentrations (IC50) were reported as the mean±S.E in the figure legend.\n(§5) Cell viability was measured using the 3-(4,5-dimethyl-2-yl)-2,5-diphenylteraolium bromide (MTT) assay. The adherent breast cancer cells (MCF-7 and BT474) were seeded at an initial concentration of 3×10^4 cells/well 24 h prior to the commencement of the experiments to allow them to attach, while the suspension leukemia cells, HL-60, HL-60-/VCR and HL-60/ADR were seeded at 3×10^4 cells/well on the same day of the experiment in a 96 well plate. […] The MTT assay was performed at 48 h and absorbance was measured with the microplate reader (Biotek ELx 800, Biotek Instruments, Winooski, Vt.) at a wavelength of 595 nm. Data is reported as cell viability (% control) and corresponds to the percent viable cells compared to untreated cells.\n(§6) Data are represented as the mean±standard error (SE). Each experimental group consisted of n=6 and experiments were repeated two times. […] The IC50 was calculated with GraphPad Prism® non-linear regression program."}, "MCF-7 cells [9]": {"system": "MCF-7 cells", "procedure": "(§7) Cell viability was determined with MTT assay. Absorbance was measured at 595 nm and adjusted to the absorbance of untreated cells. Data represent mean±SE; n=12 (two independent experiments performed in n=6). Inhibitory concentration (IC50) was reported as mean±S.E.\nas §5, §6"}, "HL-60/ADR cells": {"system": "HL-60/ADR cells", "assay": "MTT cell viability assay, HL-60/ADR leukemia cells", "assay_type": "cell-based, human", "description": "(§3) FIGS. 1A-B: […] Cell viability was determined with the MTT assay. […] Data are represented as the mean±standard error (SE). […] San Diego, Calif.)."}, "MCF-7 cells [10]": {"system": "MCF-7 cells", "assay": "cells", "conditions": "Homo sapiens, MCF7, 48 h", "procedure": "as §7, §5, §6"}, "HL-60/VCR cells": {"system": "HL-60/VCR cells", "assay": "MTT cell viability assay, HL-60/VCR leukemia cells", "assay_type": "cell-based, human", "description": "as §3"}, "HL-60 cells [11]": {"system": "HL-60 cells", "assay": "In-vitro cytotoxicity of gelatin-D-pen conjugate (MTT)", "conditions": "cupric sulfate up to 100 μM, p>0.05 versus control", "procedure": "Cells (2×10^4) were incubated with gelatin alone (1 mg/mL), D-pen alone (100 μM), gelatin (1 mg/mL) plus D-pen (100 μM), and gelatin-D-pen conjugate (1 mg/mL) After every 2 day interval media was replaced with fresh media. MTT assay was performed on day 2, 4, 6, 8 and 10. Data represents mean±SD (n=6). **p<0.01 and ***p<0.001 compared to gelatin plus D-pen.\nIn-vitro cytotoxicity of gelatin-D-pen conjugate. The HL-60 cells were seeded at a density of 2×10^4 cells/mL in a 96 well plate. […] The above experiments were repeated with the copper pre-treated cells. Cell viability was determined at 24 and 72 h with MTT assay."}, "HL-60 cells [12]": {"system": "HL-60 cells", "conditions": "cupric sulfate alone 0.1-50 μM, data not shown"}, "[13]": {"conditions": "cupric sulfate alone 0.1-50 μM, data not shown"}}, "data": [{"compound": "CC(C)(S)[C@@H](N)C(=O)O", "note": "[D-pen, D-penicillamine]", "values": [{"measurement": "half-life, biphasic elimination from the blood, first value", "setting": "[1]", "result": "6 to 7", "unit": "min"}, {"measurement": "half-life, biphasic elimination from the blood, second value", "setting": "[1]", "result": "52 to 55", "unit": "min"}, {"measurement": "intracellular ROS generation (in words)", "setting": "MCF-7 cells [2]", "result": "failed to produce any ROS"}, {"measurement": "reduction in cell viability (in words)", "setting": "HL-60 cells [3]", "result": "did not cause significant reduction in cell viability"}, {"measurement": "cell uptake of free D-pen (in words)", "setting": "HL-60 cells [4]", "result": "not to enter leukemia cells"}, {"measurement": "intracellular ROS levels (in words)", "setting": "HL-60 cells [5]", "result": "no increase in intracellular ROS"}, {"measurement": "reduction in cell viability (in words)", "setting": "MDA-MB-468 cells", "result": "did not cause significant reduction in cell viability"}, {"measurement": "intracellular ROS generation (in words)", "setting": "HL-60 cells [6]", "result": "failed to produce any ROS"}, {"measurement": "Log P", "setting": "[7]", "result": "−0.39"}, {"measurement": "reduction in cell viability (in words)", "setting": "P388 cells", "result": "did not cause significant reduction in cell viability"}]}, {"compound": "OO", "note": "[H2O2, hydrogen peroxide]", "values": [{"measurement": "fold difference between IC50 of D-pen plus cupric sulfate and IC50 of H2O2 alone", "setting": "BT474 cells; BT474", "result": "~3", "unit": "fold"}, {"measurement": "IC50", "setting": "BT474 cells; Homo sapiens, BT-474, BT474, 48 h, MTT", "result": "96.1 ± 1.1", "unit": "µM"}, {"measurement": "IC50", "setting": "HL-60 cells [8]", "result": "20 ± 1", "unit": "µM"}, {"measurement": "ROS generated compared to D-pen plus cupric sulfate", "setting": "MCF-7 cells [2]; H2O2 alone 100 μM", "result": 5, "unit": "fold"}, {"measurement": "fold difference between IC50 of D-pen plus cupric sulfate and IC50 of H2O2 alone", "setting": "MCF-7 cells [9]", "result": "approximately 2 fold"}, {"measurement": "IC50", "setting": "HL-60/ADR cells; Homo sapiens, HL60/ADR, 48 h, MTT, D-pen (1-400 μM) with cupric sulfate 10 μM", "result": "162.5 ± 1.1", "unit": "µM"}, {"measurement": "IC50", "setting": "MCF-7 cells [10]", "result": "116 ± 1.6", "unit": "µM"}, {"measurement": "fold difference between IC50 of D-pen plus cupric sulfate and IC50 of H2O2 alone", "setting": "HL-60/VCR cells", "result": "~4", "unit": "fold"}, {"measurement": "IC50", "setting": "HL-60/VCR cells; Homo sapiens, HL60/VCR, 48 h, MTT, D-pen with cupric sulfate 10 μM", "result": "31.5 ± 1.1", "unit": "µM"}]}, {"compound": "O=S(=O)([O-])[O-].[Cu+2]", "note": "[cupric sulfate]", "values": [{"measurement": "intracellular ROS generation (in words)", "setting": "MCF-7 cells [2]", "result": "failed to produce any ROS"}, {"measurement": "effect of copper pre-treatment on cell number or viability", "setting": "HL-60 cells [11]", "result": "did not result in statistically significant decrease in cell number or viability"}, {"measurement": "loss in cell viability", "setting": "HL-60 cells [12]", "result": "did not result in any appreciable loss in cell viability"}, {"measurement": "loss in cell viability", "setting": "HL-60/ADR cells; [13]", "result": "did not result in any appreciable loss in cell viability"}, {"measurement": "intracellular ROS generation (in words)", "setting": "HL-60 cells [6]", "result": "failed to produce any ROS"}, {"measurement": "loss in cell viability", "setting": "HL-60/VCR cells; [13]", "result": "did not result in any appreciable loss in cell viability"}]}, {"compound": "CCCCCCOC(=O)[C@H](N)C(C)(C)S", "note": "[hexyl-D-pen-ester]", "values": [{"measurement": "Log P", "setting": "[7]", "result": 1.61}]}, {"compound": "catalase", "values": [{"measurement": "intracellular ROS generation (in words)", "setting": "MCF-7 cells [2]", "result": "completely inhibited ROS generation"}, {"measurement": "intracellular ROS generation (in words)", "setting": "HL-60 cells [6]", "result": "completely inhibited ROS generation"}]}]}
